Measured values: the supplement of paper PMC10477900
Structures can show the parent of a compound that is named as a salt.

Assays:
HCT116 [1] = assay: viability inhibition vs untreated; higher = more cytotoxic; conditions: 72 h
HCT116 [2] = conditions: 72 h
Experimental: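 HCT116 control and MTA1-KO (CRISPR) HCT116 cells were seeded in 384-well plates (800 cells/well), treated 16 h later with 237 metabolism-related anticancer drugs at five doses (10 uM, 2 uM, 400 nM, 80 nM, 16 nM) for 72 h, two replicates; viability by CCK8. Values are % inhibition of viability relative to untreated cells, plus fitted IC50.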

| SMILES | viability inhibition (HCT116 [1]; genotype: MTA1-KO, 16 nM) | viability inhibition (HCT116 [1]; genotype: MTA1-KO, 80 nM) | viability inhibition (HCT116 [1]; genotype: MTA1-KO, 400 nM) | viability inhibition (HCT116 [1]; genotype: MTA1-KO, 2000 nM) | viability inhibition (HCT116 [1]; genotype: MTA1-KO, 10000 nM) | viability inhibition (HCT116 [1]; genotype: control, 16 nM) | viability inhibition (HCT116 [1]; genotype: control, 80 nM) | viability inhibition (HCT116 [1]; genotype: control, 400 nM) | viability inhibition (HCT116 [1]; genotype: control, 2000 nM) | viability inhibition (HCT116 [1]; genotype: control, 10000 nM) | IC50 (HCT116 [2]; genotype: MTA1-KO) | IC50 (HCT116 [2]; genotype: control) |
| --- | --- | --- | --- | --- | --- | --- | --- | --- | --- | --- | --- | --- |
| C[C@@H](C(=O)Nc1ccc(Cl)cc1)[C@H]1CC[C@@H](c2ccnc3ccc(F)cc32)CC1 [Linrodostat] | 1.54% | 1.21% | 3.39% | 14.8% | 44.2% | 10.9% | 21.6% | 17.7% | 28.7% | 22% | > 10 µM | > 10 µM |
| O=C(Oc1ccc([N+](=O)[O-])cc1)N1CCC(C(O)(c2ccc3c(c2)OCO3)c2ccc3c(c2)OCO3)CC1 [JZL184] | 6.97% | 15.2% | 21.9% | 37.7% | 62.3% | 9.18% | -4.77% | -6.67% | -12.4% | 2.68% | 5.53 µM | > 10 µM |
| NCCCC(N)(C(=O)O)C(F)F (stereo unspecified) [Eflornithine hydrochloride Monohydrate] | -16.1% | -27.6% | -24% | -21.9% | -20.4% | 11.3% | 1.76% | -3.16% | 0.852% | 61.6% | > 10 µM | 9.47 µM |
| Nc1ncnc2c1ncn2[C@@H]1O[C@H](COP(=O)(O)O)[C@@H](O)[C@H]1O [Adenosine 5'-monophosphate] | 1.56% | 3.02% | 2% | -3.03% | 4.43% | 9.4% | 14.9% | 9.53% | 10.4% | 17.4% | > 10 µM | > 10 µM |
| O=S(=O)(NCCSSCCNS(=O)(=O)c1cc(Cl)ccc1Cl)c1cc(Cl)ccc1Cl [KC7F2] | 3.77% | 14.6% | 13.5% | 9.73% | 16.2% | 25.3% | 14.3% | 11.1% | 9.06% | 24.4% | > 10 µM | > 10 µM |
| O=C(Oc1cccc(F)c1OC(=O)c1cccc(O)c1)c1cccc(O)c1 [WZB117] | 1.38% | -12.9% | -10.3% | -1.16% | 12.7% | -23.3% | -8.87% | -3.93% | -25.9% | -15% | > 10 µM | > 10 µM |
| O=C1[C@H](CC[C@H](O)c2ccc(F)cc2)[C@@H](c2ccc(O)cc2)N1c1ccc(F)cc1 [Ezetimibe] | -4.11% | 3.58% | 10.6% | 5.65% | 0.125% | -7.56% | 2.58% | 22% | 25.8% | 31.9% | > 10 µM | > 10 µM |
| Nc1ccc(S(N)(=O)=O)cc1 [Sulfanilamide] | -4.56% | -14.5% | -27.6% | -20.9% | -19.4% | -9.12% | -7.95% | -13.7% | -13.7% | -7.82% | > 10 µM | > 10 µM |
| NS(=O)(=O)c1cc2c(cc1C(F)(F)F)NC(Cc1ccccc1)NS2(=O)=O (stereo unspecified) [Bendroflumethiazide] | -4.82% | -2.33% | -5.2% | -12.6% | -13.6% | 0.542% | -1.18% | -14.6% | 4.49% | -9.53% | > 10 µM | > 10 µM |
| C[C@]12CC[C@H](O)C[C@H]1CC[C@@H]1[C@@H]2CC[C@]2(C)[C@@](O)(c3ccoc3)CC[C@]12O [Rostafuroxin] | 11.8% | 13.5% | 10% | 14.5% | 30.6% | -0.895% | 11.7% | 13.9% | 5.09% | 13% | > 10 µM | > 10 µM |
| Cc1ccccc1C(=O)N1CCc2cc(-c3nc(NC(=O)Cc4ccc5c(c4)OCO5)sc3C)ccc21 [ML385] | 4.66% | -3.65% | -2.81% | 0.224% | 49.3% | 3.74% | -1.5% | 2.66% | -0.526% | 29.4% | > 10 µM | > 10 µM |
| NC(N)=O [Urea] | -19% | -12.8% | -10.1% | -15.4% | -12.3% | 5.26% | 1.82% | -7.36% | 3.6% | -3.54% | > 10 µM | > 10 µM |
| C=CC[C@@H]1/C=C(\C)C[C@H](C)C[C@H](OC)[C@H]2O[C@@](O)(C(=O)C(=O)N3CCCC[C@H]3C(=O)O[C@H](/C(C)=C/[C@@H]3CC[C@@H](O)[C@H](OC)C3)[C@H](C)[C@@H](O)CC1=O)[C@H](C)C[C@@H]2OC [Tacrolimus] | -4.95% | -4.18% | 0.155% | -5.39% | -7.24% | 5.2% | 13.7% | 18% | 7.23% | 7.94% | > 10 µM | > 10 µM |
| COc1cc(Nc2nc3ccccc3nc2NS(=O)(=O)c2ccc(NC(=O)c3ccc(C)c(OC)c3)cc2)cc(OC)c1 [Voxtalisib Analogue] | -13.9% | -7.35% | -17% | -3.38% | 24.9% | -7.04% | -8.31% | -4.56% | -7.36% | 5.96% | > 10 µM | > 10 µM |
| CCN[C@H]1CN(CCCOC)S(=O)(=O)c2sc(S(N)(=O)=O)cc21 [Brinzolamide] | -13.1% | -25.7% | -24.4% | -29.9% | -25.2% | -12.4% | -11.9% | -8.93% | -15.3% | -13.6% | > 10 µM | > 10 µM |
| CC(C)n1nc(-c2cc3cc(O)ccc3[nH]2)c2c(N)ncnc21 [Torkinib] | -28.4% | -28.6% | -28.2% | -9.28% | 27.1% | -1.58% | -1.28% | -0.73% | 8.7% | 65.9% | > 10 µM | 8.06 µM |
| O=C(/C=C/c1ccc2ccc(C(F)(F)F)cc2n1)c1ccncc1 [PFK158] | -5.2% | -29.6% | -31.5% | -28.1% | 121% | 8.64% | -5.17% | 1.7% | -5.11% | 96.2% | 3.1 µM | 3.89 µM |
| NS(=O)(=O)c1cc(Cl)c(Cl)c(S(N)(=O)=O)c1 [Dichlorphenamide] | 6.61% | -0.189% | -0.404% | -3.85% | 16.5% | -20.7% | -6.03% | -16.5% | -12.6% | -18.3% | > 10 µM | > 10 µM |
